Assay results reported in patent US9403830B2, “Inhibitors of leukotriene production” (Boehringer Ingelheim International GmbH, priority 2012, dated 2016).

How the values were obtained:
[1] = biological target: T1, human LTA4 hydrolase (Homo sapiens, UniProt P09960); assay: LTA4H Enzyme assay (peptidase, Arg-AMC cleavage); type: biochemical; conditions: LTA4H enzyme 1 nM, Arg-AMC substrate 50 μM, room temperature 1 h, fluorescence 380/460 nm
T1 sequence (P09960 1-611): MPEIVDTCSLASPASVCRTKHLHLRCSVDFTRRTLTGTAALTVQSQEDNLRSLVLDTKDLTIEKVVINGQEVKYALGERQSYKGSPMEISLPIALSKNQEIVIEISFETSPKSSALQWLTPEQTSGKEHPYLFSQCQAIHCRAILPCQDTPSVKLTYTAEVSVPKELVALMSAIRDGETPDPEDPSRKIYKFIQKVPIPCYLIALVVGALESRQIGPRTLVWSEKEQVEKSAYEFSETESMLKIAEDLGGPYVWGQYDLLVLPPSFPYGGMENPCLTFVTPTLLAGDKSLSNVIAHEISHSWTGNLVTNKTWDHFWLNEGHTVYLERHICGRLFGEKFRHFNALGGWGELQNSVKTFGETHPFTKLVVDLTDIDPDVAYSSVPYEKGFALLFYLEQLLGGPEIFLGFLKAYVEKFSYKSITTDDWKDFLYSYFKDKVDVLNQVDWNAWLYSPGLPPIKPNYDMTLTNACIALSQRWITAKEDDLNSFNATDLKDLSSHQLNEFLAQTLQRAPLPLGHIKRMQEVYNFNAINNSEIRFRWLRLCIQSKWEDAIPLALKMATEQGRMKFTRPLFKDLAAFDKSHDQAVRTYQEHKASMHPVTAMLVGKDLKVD
How it was run: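 Human LTA4H (1 nM final) incubated with compound and Arg-AMC (50 μM final) in 50 mM Tris-HCl pH 7.5, 100 mM KCl, 0.5% BSA, 1 h at room temperature. Product read as AMC fluorescence (ex 380/em 460 nm); IC50 reported.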

[2] = tested on: LTB4 synthesis in human whole blood; assay: human whole blood (HWB) assay, inhibition of LTB4 production; type: cell-based; conditions: heparinized human whole blood, calcimycin 20 μM stimulation, plasma LTB4
How it was run: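 Plasma LTB4, quantified by HTRF immunoassay, is the read-out after calcimycin challenge (20 μM final, 30 min, 37 °C) of heparinized whole blood that had been pretreated with compound for 15 min at 37 °C; values given as IC50.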

| Compound | IC50 [1] [nM] | IC50 [2] [nM] |
| --- | --- | --- |
| CC(=O)NC1CCN(Cc2ccc3cc(Oc4ccc(-c5cc[nH]n5)cn4)ccc3n2)CC1 [Example 237, N-(1-{6-[5-(1H-Pyrazol-3-yl)-pyridin-2-yloxy]-quinolin-2-ylmethyl}-piperidin-4-yl)-acetamide] | 0.84 | 210 |
| Cc1nc2ccc(Oc3ccc(-c4ccn[nH]4)cc3)cc2cc1CN1CCCC1 [Example 256, 2-Methyl-6-[4-(2H-pyrazol-3-yl)-phenoxy]-3-pyrrolidin-1-ylmethyl-quinoline] | 1.6 | 480 |
| N#CCC1CCN(Cc2ccc3cc(Oc4ccc(-c5ccn[nH]5)cn4)ccc3n2)CC1 [Example 96, (1-{6-[5-(2H-Pyrazol-3-yl)-pyridin-2-yloxy]-quinolin-2-ylmethyl}-piperidin-4-yl)-acetonitrile] | 0.79 | 160 |
| O=C1CC[C@@H](Cn2ncc3cc(Oc4ccc(-c5ccn[nH]5)cn4)ccc32)N1 [Example 117, (S)-5-{5-[5-(2H-Pyrazol-3-yl)-pyridin-2-yloxy]-indazol-1-ylmethyl}-pyrrolidin-2-one] | 4.4 | 650 |
| O=C1CCC(c2cn3cc(Oc4ccc(-c5ccn[nH]5)cc4)ccc3n2)CN1 (stereo not drawn) [Example 67, 5-{6-[4-(2H-Pyrazol-3-yl)-phenoxy]-imidazo[1,2-a]pyridin-2-yl}-piperidin-2-one] | 1.4 | 480 |
| COCC(=O)N1CCN(Cc2ccc3cc(Oc4ccc(-c5ccn[nH]5)cn4)ccc3c2)CC1 [Example 1, 2-Methoxy-1-(4-{6-[5-(2H-pyrazol-3-yl)-pyridin-2-yloxy]-naphthalen-2-ylmethyl}-piperazin-1-yl)-ethanone] | 0.63 | 180 |
| CC(=O)N1CCN(c2ccc3cc(Oc4ccc(-c5ccn[nH]5)cn4)ccc3n2)CC1 [Example 115, 1-(4-{6-[5-(2H-Pyrazol-3-yl)-pyridin-2-yloxy]-quinolin-2-yl}-piperazin-1-yl)-ethanone] | 1.7 | 550 |
| OCCCn1ncc2cc(Oc3ccc(-c4ccn[nH]4)cc3)ccc21 [Example 118, 3-{5-[4-(2H-Pyrazol-3-yl)-phenoxy]-indazol-1-yl}-propan-1-ol] | 7 | 760 |
| CC(=O)N1CCN(Cc2cc3cc(Oc4ccc(-c5ccn[nH]5)cn4)ccc3[nH]2)CC1 [Example 222, 1-(4-{5-[5-(2H-Pyrazol-3-yl)-pyridin-2-yloxy]-1H-indol-2-ylmethyl}-piperazin-1-yl)-ethanone] | 0.73 | 230 |
| O=C1CC[C@H](Oc2ccc3cc(Oc4ccc(-c5ccn[nH]5)cc4)ccc3n2)CN1 [Example 68, (S)-5-{6-[4-(2H-Pyrazol-3-yl)-phenoxy]-quinolin-2-yloxy}-piperidin-2-one] | 4.2 | 590 |
| CC(=O)N1CC(CN(C)Cc2ccc3cc(Oc4ccc(-c5ccn[nH]5)cn4)ccc3n2)C1 [Example 36, 1-{3-[(Methyl-{6-[5-(2H-pyrazol-3-yl)-pyridin-2-yloxy]-quinolin-2-ylmethyl}-amino)-methyl]-azetidin-1-yl}-ethanone] | 0.98 | 240 |
| O=C(CO)N1C2CCC1CN(Cc1ccc3cc(Oc4ccc(-c5ccn[nH]5)cn4)ccc3n1)C2 [Example 44, 2-Hydroxy-1-(3-{6-[5-(2H-pyrazol-3-yl)-pyridin-2-yloxy]-quinolin-2-ylmethyl}-3,8-diaza-bicyclo[3.2.1]oct-8-yl)-ethanone] | 0.71 | 410 |
| CCC(=O)N1CCN(Cc2ccc3cc(Oc4ccc(-c5ccn[nH]5)cn4)ccc3n2)CC1 [Example 29, 1-(4-{6-[5-(2H-Pyrazol-3-yl)-pyridin-2-yloxy]-quinolin-2-ylmethyl}-piperazin-1-yl)-propan-1-one] | 0.66 | 190 |
| CC(=O)N1C[C@@H]2C[C@H]1CN2Cc1ccc2cc(Oc3ccc(-c4cc[nH]n4)cn3)ccc2n1 [Example 240, 1-((S)-5-{6-[5-(1H-Pyrazol-3-yl)-pyridin-2-yloxy]-quinolin-2-ylmethyl}-2,5-diaza-bicyclo[2.2.1]hept-2-yl)-ethanone] | 0.94 | 340 |
| O=C(N1CCN(Cc2ccc3cc(Oc4ccc(-c5ccn[nH]5)cc4)ccc3n2)CC1)C1(O)CC1 [Example 15, (1-hydroxy-cyclopropyl)-(4-{6-[4-(2H-pyrazol-3-yl)-phenoxy]-quinolin-2-ylmethyl}-piperazin-1-yl)-methanone] | 2.4 | 810 |

Compounds with a lower IC50 [1], results first:

| IC50 [1] [nM] | IC50 [2] [nM] | Compound |
| --- | --- | --- |
| 0.57 | 210 | c1cc(-c2ccc(Oc3ccc4nc(CN5CCOCC5)cn4c3)cc2)[nH]n1 [Example 250, 2-Morpholin-4-ylmethyl-6-[4-(2H-pyrazol-3-yl)-phenoxy]-imidazo[1,2-a]pyridine] |
| 0.57 | 190 | CNC(=O)C1CCN(CC2Cc3ccc(Oc4ccc(-c5ccn[nH]5)cc4)cc3O2)CC1 (stereo not drawn) [Example 137, 1-{6-[4-(2H-Pyrazol-3-yl)-phenoxy]-2,3-dihydro-benzofuran-2-ylmethyl}-piperidine-4-carboxylic acid methylamide] |
| 0.37 | 200 | c1cc(-c2ccc(Oc3ccc4ncc(CN5CCOCC5)cc4c3)cc2)[nH]n1 [Example 249, 3-Morpholin-4-ylmethyl-6-[4-(2H-pyrazol-3-yl)-phenoxy]-quinoline] |
| 0.35 | 150 | CC(=O)NC1CCN(CCc2coc3cc(Oc4ccc(-c5ccn[nH]5)cn4)ccc23)CC1 [Example 133, N-[1-(2-{6-[5-(2H-Pyrazol-3-yl)-pyridin-2-yloxy]-benzofuran-3-yl}-ethyl)-piperidin-4-yl]-acetamide] |
| 0.32 | 300 | COC(=O)c1ccc(CN2C[C@@H]3C[C@H]2CN3Cc2nc3cc(Oc4ccc(-c5ccn[nH]5)cc4)ccc3[nH]2)cc1 [Example 150, 4-((1S,4S)-5-{5-[4-(2H-Pyrazol-3-yl)-phenoxy]-1H-benzoimidazol-2-ylmethyl}-2,5-diaza-bicyclo[2.2.1]hept-2-ylmethyl)-benzoic acid methyl ester] |
| 0.24 | 70 | c1cc(-c2ccc(Oc3ccc4nc(CN5CCCC5)ccc4c3)nc2)[nH]n1 [Example 19, 6-[5-(2H-Pyrazol-3-yl)-pyridin-2-yloxy]-2-pyrrolidin-1-ylmethyl-quinoline] |
| 0.2 | 150 | CCCN(CCOC)Cc1nc2cc(Oc3ccc(-c4ccn[nH]4)cc3)ccc2[nH]1 [Example 184, (2-Methoxy-ethyl)-propyl-{5-[4-(2H-pyrazol-3-yl)-phenoxy]-1H-benzoimidazol-2-ylmethyl}-amine] |
| 0.19 | 200 | CN(Cc1nc2cc(Oc3ccc(-c4ccn[nH]4)cc3)ccc2[nH]1)C1CCOCC1 [Example 230, Methyl-{5-[4-(2H-pyrazol-3-yl)-phenoxy]-1H-benzoimidazol-2-ylmethyl}-(tetrahydro-pyran-4-yl)-amine] |
| 0.16 | 180 | COC1CCN(Cc2nc3cc(Oc4ccc(-c5ccn[nH]5)cc4)ccc3[nH]2)CC1 [Example 228, 2-(4-Methoxy-piperidin-1-ylmethyl)-5-[4-(2H-pyrazol-3-yl)-phenoxy]-1H-benzoimidazole] |
| 0.14 | 120 | CC[C@H](C)NCc1nc2cc(Oc3ccc(-c4ccn[nH]4)cc3)ccc2[nH]1 [Example 161, ((S)-sec-Butyl)-{5-[4-(2H-pyrazol-3-yl)-phenoxy]-1H-benzoimidazol-2-ylmethyl}-amine] |
| 0.13 | 120 | COCC1CCCCN1Cc1nc2cc(Oc3ccc(-c4ccn[nH]4)cc3)ccc2[nH]1 (stereo not drawn) [Example 168, 2-(2-Methoxymethyl-piperidin-1-ylmethyl)-5-[4-(2H-pyrazol-3-yl)-phenoxy]-1H-benzoimidazole] |
| 0.13 | 190 | CCCN(CCO)Cc1nc2cc(Oc3ccc(-c4ccn[nH]4)cc3)ccc2[nH]1 [Example 199, 2-(Propyl-{5-[4-(2H-pyrazol-3-yl)-phenoxy]-1H-benzoimidazol-2-ylmethyl}-amino)-ethanol] |
| 0.089 | 95 | CN(Cc1nc2cc(Oc3ccc(-c4ccn[nH]4)cc3)ccc2[nH]1)[C@@H]1CCOC1 [Example 78, Methyl-{5-[4-(2H-pyrazol-3-yl)-phenoxy]-1H-benzoimidazol-2-ylmethyl}-(R)-tetrahydro-furan-3-yl-amine] |
| 0.056 | 120 | CCN(Cc1nc2cc(Oc3ccc(-c4ccn[nH]4)cc3)ccc2[nH]1)[C@@H](C)COC [Example 86, Ethyl-((S)-2-methoxy-1-methyl-ethyl)-{5-[4-(2H-pyrazol-3-yl)-phenoxy]-1H-benzoimidazol-2-ylmethyl}-amine] |
| 0.048 | 120 | c1cc(-c2ccc(Oc3ccc4nc(CN5CCC5)ccc4c3)cc2)[nH]n1 [Example 244, 2-Azetidin-1-ylmethyl-6-[4-(2H-pyrazol-3-yl)-phenoxy]-quinoline] |
